Columns and labels:
[1] = tested on: Tyrosine-protein kinase ABL1 (Homo sapiens), P00519 [F317L]; details: Compound concentration 1000.0 nM
[2] = molecular target: Mitogen-activated protein kinase 14 (Homo sapiens, UniProt Q16539); details: Compound concentration 1000.0 nM
[3] = molecular target: Serine/threonine-protein kinase RIO3 (Homo sapiens) (UniProt O14730); details: Compound concentration 1000.0 nM
[4] = molecular target: Serine/threonine-protein kinase NIM1 (Homo sapiens) (UniProt Q8IY84); details: Compound concentration 1000.0 nM
[5] = molecular target: Muscarinic acetylcholine receptor M1 (Homo sapiens) (UniProt P11229); details: Compound concentration 10.0 uM
[6] = molecular target: Microtubule-associated serine/threonine-protein kinase 1 (Homo sapiens) (UniProt Q9Y2H9); details: Compound concentration 1000.0 nM
[7] = molecular target: Serine/threonine-protein kinase 32A (Homo sapiens) (UniProt Q8WU08); details: Compound concentration 1000.0 nM
[8] = molecular target: Serine/threonine-protein kinase 35 (Homo sapiens) (UniProt Q8TDR2); details: Compound concentration 1000.0 nM
[9] = tested on: Phosphatidylinositol 4,5-bisphosphate 3-kinase catalytic subunit alpha isoform (Homo sapiens), P42336 [E545K]; details: Compound concentration 1000.0 nM
[10] = molecular target: Phosphatidylinositol 4-phosphate 5-kinase type-1 alpha (Homo sapiens) (UniProt Q99755); details: Compound concentration 1000.0 nM
[11] = molecular target: Cyclin-dependent kinase 19 (Homo sapiens) (UniProt Q9BWU1); details: Compound concentration 1000.0 nM
[12] = molecular target: Serine/threonine-protein kinase 10 (Homo sapiens) (UniProt O94804); details: Compound concentration 1000.0 nM
[13] = molecular target: Serine/threonine-protein kinase PAK 6 (Homo sapiens) (UniProt Q9NQU5); details: Compound concentration 1000.0 nM
[14] = molecular target: Mitogen-activated protein kinase 7 (Homo sapiens) (UniProt Q13164); details: Compound concentration 1000.0 nM
[15] = molecular target: Alpha-1B adrenergic receptor (Homo sapiens) (UniProt P35368); details: Compound concentration 10.0 uM
[16] = molecular target: Tyrosine-protein kinase receptor Tie-1 (Homo sapiens) (UniProt P35590); details: Compound concentration 1000.0 nM
[17] = tested on: Mast/stem cell growth factor receptor Kit (Homo sapiens), P10721 [L576P]; details: Compound concentration 1000.0 nM
[18] = molecular target: cAMP-dependent protein kinase catalytic subunit beta (Homo sapiens) (UniProt P22694); details: Compound concentration 1000.0 nM
[19] = molecular target: SRSF protein kinase 3 (Homo sapiens) (UniProt Q9UPE1); details: Compound concentration 1000.0 nM
[20] = molecular target: Protein kinase C theta type (Homo sapiens) (UniProt Q04759); details: Compound concentration 1000.0 nM
[21] = molecular target: Atypical kinase COQ8A, mitochondrial (Homo sapiens) (UniProt Q8NI60); details: Compound concentration 1000.0 nM
[22] = molecular target: Tyrosine-protein kinase TXK (Homo sapiens) (UniProt P42681); details: Compound concentration 1000.0 nM
[23] = molecular target: Rho-associated protein kinase 2 (Homo sapiens) (UniProt O75116); details: Compound concentration 1000.0 nM
[24] = molecular target: Tyrosine-protein kinase receptor TYRO3 (Homo sapiens) (UniProt Q06418); details: Compound concentration 1000.0 nM
[25] = molecular target: Beta-2 adrenergic receptor (Homo sapiens) (UniProt P07550); details: Compound concentration 10.0 uM
[26] = molecular target: Mitogen-activated protein kinase kinase kinase kinase 5 (Homo sapiens) (UniProt Q9Y4K4); details: Compound concentration 1000.0 nM
[27] = molecular target: Tyrosine-protein kinase JAK1 (Homo sapiens) (UniProt P23458); details: Compound concentration 1000.0 nM
[28] = tested on: Phosphatidylinositol 4,5-bisphosphate 3-kinase catalytic subunit alpha isoform (Homo sapiens), P42336 [I800L]; details: Compound concentration 1000.0 nM
[29] = molecular target: Sodium-dependent noradrenaline transporter (Homo sapiens, UniProt P23975); details: Compound concentration 10.0 uM
[30] = molecular target: Insulin-like growth factor 1 receptor (Homo sapiens) (UniProt P08069); details: Compound concentration 1000.0 nM
[31] = molecular target: Tyrosine-protein kinase Lyn (Homo sapiens) (UniProt P07948); details: Compound concentration 1000.0 nM
[32] = molecular target: Mitogen-activated protein kinase kinase kinase kinase 1 (Homo sapiens) (UniProt Q92918); details: Compound concentration 1000.0 nM
[33] = tested on: Epidermal growth factor receptor (Homo sapiens), P00533 [L858R,T790M]; details: Compound concentration 1000.0 nM
[34] = molecular target: Ribosomal protein S6 kinase alpha-5 (Homo sapiens) (UniProt O75582); details: Compound concentration 1000.0 nM
[35] = molecular target: Serine/threonine-protein kinase WNK1 (Homo sapiens) (UniProt Q9H4A3); details: Compound concentration 1000.0 nM
[36] = molecular target: Cyclin-dependent kinase 4 (Homo sapiens) (UniProt P11802); details: Compound concentration 1000.0 nM
[37] = molecular target: Ribosomal protein S6 kinase alpha-6 (Homo sapiens) (UniProt Q9UK32); details: Compound concentration 1000.0 nM
[38] = molecular target: Dual specificity protein kinase CLK2 (Homo sapiens) (UniProt P49760); details: Compound concentration 1000.0 nM
[39] = molecular target: Proto-oncogene tyrosine-protein kinase Src (Homo sapiens) (UniProt P12931); details: Compound concentration 1000.0 nM
[40] = molecular target: Calcium/calmodulin-dependent protein kinase type 1D (Homo sapiens) (UniProt Q8IU85); details: Compound concentration 1000.0 nM
[41] = molecular target: AP2-associated protein kinase 1 (Homo sapiens) (UniProt Q2M2I8); details: Compound concentration 1000.0 nM
[42] = molecular target: Sigma non-opioid intracellular receptor 1 (Homo sapiens, UniProt Q99720); details: Compound concentration 10.0 uM

Sequence of Tyrosine-protein kinase Lyn (Homo sapiens) (P07948 2-512 limits assumed): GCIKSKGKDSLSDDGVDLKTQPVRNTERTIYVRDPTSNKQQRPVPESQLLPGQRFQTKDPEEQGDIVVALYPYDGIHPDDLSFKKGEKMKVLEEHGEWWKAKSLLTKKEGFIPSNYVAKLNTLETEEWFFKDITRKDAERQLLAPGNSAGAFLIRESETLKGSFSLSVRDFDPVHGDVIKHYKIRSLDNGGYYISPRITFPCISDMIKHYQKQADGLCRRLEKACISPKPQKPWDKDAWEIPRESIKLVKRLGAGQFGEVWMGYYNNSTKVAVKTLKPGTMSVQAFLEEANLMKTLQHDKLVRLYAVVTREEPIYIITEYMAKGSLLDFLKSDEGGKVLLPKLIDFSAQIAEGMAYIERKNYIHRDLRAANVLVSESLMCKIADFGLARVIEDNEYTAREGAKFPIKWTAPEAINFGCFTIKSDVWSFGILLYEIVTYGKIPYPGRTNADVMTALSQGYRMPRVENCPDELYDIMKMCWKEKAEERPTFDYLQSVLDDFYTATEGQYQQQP
Sequence of Cyclin-dependent kinase 4 (Homo sapiens) (P11802 whole entry): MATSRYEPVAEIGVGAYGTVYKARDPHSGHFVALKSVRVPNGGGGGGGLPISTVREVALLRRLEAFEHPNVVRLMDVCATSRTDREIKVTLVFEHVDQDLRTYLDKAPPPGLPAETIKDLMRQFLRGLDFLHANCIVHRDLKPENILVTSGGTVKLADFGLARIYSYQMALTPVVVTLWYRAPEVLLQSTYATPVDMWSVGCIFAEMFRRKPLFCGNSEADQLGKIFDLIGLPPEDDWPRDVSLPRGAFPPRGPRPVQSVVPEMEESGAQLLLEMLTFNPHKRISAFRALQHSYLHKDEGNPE
Sequence of Tyrosine-protein kinase TXK (Homo sapiens) (P42681 whole entry): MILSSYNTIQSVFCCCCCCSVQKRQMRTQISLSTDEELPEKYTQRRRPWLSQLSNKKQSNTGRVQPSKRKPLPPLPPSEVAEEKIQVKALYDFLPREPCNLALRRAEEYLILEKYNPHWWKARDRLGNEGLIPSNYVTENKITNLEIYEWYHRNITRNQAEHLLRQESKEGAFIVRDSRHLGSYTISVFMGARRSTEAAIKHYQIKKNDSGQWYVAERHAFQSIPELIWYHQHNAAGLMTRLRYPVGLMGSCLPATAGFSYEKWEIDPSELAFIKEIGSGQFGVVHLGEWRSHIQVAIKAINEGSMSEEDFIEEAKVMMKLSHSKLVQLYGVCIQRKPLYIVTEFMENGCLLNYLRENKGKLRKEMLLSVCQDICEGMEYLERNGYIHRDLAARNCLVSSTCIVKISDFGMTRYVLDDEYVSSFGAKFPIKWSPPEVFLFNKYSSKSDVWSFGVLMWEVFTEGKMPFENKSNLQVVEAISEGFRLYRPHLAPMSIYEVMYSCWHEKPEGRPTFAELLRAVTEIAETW
Sequence of SRSF protein kinase 3 (Homo sapiens) (Q9UPE1 whole entry): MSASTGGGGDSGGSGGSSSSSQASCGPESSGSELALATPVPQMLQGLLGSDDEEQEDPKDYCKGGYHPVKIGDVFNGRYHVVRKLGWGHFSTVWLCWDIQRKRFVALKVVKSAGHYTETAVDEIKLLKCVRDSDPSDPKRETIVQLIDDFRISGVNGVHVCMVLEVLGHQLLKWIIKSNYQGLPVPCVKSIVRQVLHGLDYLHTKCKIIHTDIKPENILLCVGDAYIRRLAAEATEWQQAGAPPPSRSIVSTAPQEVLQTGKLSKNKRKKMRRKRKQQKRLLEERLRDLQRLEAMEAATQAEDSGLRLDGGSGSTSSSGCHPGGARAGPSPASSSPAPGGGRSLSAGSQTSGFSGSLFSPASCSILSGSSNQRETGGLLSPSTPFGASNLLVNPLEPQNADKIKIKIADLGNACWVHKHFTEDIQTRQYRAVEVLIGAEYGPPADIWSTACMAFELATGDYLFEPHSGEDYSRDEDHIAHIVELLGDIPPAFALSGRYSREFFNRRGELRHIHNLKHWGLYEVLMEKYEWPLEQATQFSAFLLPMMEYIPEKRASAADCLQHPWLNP
Sequence of AP2-associated protein kinase 1 (Homo sapiens) (Q2M2I8 whole entry, looked up): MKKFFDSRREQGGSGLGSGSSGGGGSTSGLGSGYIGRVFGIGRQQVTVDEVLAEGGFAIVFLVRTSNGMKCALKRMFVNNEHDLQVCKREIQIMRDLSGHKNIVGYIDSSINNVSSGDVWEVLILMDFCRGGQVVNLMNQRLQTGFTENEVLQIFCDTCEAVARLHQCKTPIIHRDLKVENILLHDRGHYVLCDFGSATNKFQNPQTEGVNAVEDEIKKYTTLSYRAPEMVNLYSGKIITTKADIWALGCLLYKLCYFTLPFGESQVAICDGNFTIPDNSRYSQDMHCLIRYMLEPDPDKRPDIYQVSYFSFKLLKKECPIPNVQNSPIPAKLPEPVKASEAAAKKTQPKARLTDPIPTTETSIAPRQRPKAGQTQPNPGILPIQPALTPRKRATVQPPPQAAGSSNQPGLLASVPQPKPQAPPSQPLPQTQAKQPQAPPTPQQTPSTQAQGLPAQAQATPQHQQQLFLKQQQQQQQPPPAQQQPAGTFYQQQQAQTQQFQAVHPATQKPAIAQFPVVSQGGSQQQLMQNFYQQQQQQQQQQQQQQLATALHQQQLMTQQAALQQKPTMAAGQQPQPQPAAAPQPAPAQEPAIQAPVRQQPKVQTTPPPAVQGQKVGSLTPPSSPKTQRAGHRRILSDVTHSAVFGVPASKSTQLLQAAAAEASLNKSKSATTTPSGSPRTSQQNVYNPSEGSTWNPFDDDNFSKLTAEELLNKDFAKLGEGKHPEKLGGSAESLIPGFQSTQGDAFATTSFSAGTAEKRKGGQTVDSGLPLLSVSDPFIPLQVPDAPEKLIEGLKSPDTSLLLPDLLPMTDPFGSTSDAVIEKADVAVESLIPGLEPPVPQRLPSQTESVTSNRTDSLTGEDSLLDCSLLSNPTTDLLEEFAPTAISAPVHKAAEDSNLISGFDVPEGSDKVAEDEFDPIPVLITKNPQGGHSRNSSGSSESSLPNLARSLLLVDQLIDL
Sequence of Tyrosine-protein kinase ABL1 (Homo sapiens), P00519 [F317L] (P00519 whole entry F317L): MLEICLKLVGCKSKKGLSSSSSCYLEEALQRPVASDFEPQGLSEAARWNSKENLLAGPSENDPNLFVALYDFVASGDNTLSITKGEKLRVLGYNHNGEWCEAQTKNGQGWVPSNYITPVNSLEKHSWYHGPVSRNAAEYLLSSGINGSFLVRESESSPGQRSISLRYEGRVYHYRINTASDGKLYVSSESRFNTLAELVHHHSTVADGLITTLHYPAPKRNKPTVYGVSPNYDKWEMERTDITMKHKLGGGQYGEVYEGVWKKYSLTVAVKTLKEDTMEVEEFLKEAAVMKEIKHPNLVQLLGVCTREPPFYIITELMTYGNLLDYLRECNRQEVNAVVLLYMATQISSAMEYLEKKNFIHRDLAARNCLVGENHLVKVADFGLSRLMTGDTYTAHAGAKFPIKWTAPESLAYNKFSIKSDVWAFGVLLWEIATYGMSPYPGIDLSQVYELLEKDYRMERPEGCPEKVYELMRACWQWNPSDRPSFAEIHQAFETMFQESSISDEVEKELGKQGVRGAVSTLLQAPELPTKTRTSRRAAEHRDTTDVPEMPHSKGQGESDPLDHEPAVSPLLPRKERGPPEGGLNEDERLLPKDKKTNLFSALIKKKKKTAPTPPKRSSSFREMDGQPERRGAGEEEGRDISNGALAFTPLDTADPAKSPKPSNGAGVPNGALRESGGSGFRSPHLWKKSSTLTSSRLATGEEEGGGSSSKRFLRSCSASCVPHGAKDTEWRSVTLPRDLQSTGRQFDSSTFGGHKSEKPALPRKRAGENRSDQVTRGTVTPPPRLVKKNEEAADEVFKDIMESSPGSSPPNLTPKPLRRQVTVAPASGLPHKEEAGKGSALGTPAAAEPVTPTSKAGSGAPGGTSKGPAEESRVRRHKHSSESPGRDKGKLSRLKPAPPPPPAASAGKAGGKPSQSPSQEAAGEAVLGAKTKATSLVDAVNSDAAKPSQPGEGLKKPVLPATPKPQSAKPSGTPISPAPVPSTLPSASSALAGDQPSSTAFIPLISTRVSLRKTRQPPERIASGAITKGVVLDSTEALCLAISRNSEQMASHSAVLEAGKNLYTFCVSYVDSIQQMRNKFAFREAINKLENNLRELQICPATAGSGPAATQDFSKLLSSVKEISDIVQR
Sequence of Serine/threonine-protein kinase PAK 6 (Homo sapiens) (Q9NQU5 whole entry, looked up): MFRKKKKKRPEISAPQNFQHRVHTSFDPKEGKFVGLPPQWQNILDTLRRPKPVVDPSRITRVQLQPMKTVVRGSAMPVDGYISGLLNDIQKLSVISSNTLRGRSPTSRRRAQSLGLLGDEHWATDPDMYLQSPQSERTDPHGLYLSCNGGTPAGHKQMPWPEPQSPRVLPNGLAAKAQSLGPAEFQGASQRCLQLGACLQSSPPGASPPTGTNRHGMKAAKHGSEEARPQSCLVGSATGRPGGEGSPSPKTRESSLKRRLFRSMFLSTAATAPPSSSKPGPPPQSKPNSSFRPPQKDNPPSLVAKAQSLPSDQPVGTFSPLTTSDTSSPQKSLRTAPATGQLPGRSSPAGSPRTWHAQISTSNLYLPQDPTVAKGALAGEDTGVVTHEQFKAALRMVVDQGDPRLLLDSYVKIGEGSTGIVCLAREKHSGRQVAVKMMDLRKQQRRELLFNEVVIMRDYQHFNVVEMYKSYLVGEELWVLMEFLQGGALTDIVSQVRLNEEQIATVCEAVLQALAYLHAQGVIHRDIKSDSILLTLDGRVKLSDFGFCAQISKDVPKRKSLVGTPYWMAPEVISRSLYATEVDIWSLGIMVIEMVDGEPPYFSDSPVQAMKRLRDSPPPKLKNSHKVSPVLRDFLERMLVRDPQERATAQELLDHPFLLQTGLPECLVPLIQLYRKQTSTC
Sequence of Mitogen-activated protein kinase 14 (Q16539 whole entry): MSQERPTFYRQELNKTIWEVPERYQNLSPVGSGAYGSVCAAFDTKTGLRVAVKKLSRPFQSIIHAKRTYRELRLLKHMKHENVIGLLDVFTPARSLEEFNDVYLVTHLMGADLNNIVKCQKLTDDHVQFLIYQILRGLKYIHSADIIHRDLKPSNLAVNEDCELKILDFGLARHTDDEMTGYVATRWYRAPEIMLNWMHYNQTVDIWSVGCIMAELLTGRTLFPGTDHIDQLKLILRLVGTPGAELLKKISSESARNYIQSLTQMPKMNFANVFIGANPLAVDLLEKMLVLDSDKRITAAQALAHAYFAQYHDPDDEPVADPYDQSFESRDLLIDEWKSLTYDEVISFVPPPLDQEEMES

O=C(O)c1cc(-c2ccc(C3CCNCC3)cc2)c2ccc(-c3ccc(C(F)(F)F)cc3)cc2c1 [PPTN]
active: inhibition [15] 85.8% | inhibition [42] 84.9%
inactive: residual activity [1] 100% | residual activity [2] 100% | residual activity [3] 100% | residual activity [4] 94% | inhibition [5] 4.16% | residual activity [6] 100% | residual activity [7] 100% | residual activity [8] 100% | residual activity [9] 100% | residual activity [10] 78% | residual activity [11] 97% | residual activity [12] 100% | residual activity [13] 100% | residual activity [14] 100% | residual activity [16] 100% | residual activity [17] 100% | residual activity [18] 100% | residual activity [19] 82% | residual activity [20] 100% | residual activity [21] 100% | residual activity [22] 100% | residual activity [23] 100% | residual activity [24] 100% | inhibition [25] 38.9% | residual activity [26] 100% | residual activity [27] 100% | residual activity [28] 93% | inhibition [29] 23.6% | residual activity [30] 95% | residual activity [31] 100% | residual activity [32] 96% | residual activity [33] 100% | residual activity [34] 100% | residual activity [35] 100% | residual activity [36] 100% | residual activity [37] 100% | residual activity [38] 100% | residual activity [39] 100% | residual activity [40] 100% | residual activity [41] 100%

Cc1c(C(=O)O)cc(-c2ccc(C3CCNCC3)cc2)c2ccc(-c3ccc(C(F)(F)F)cc3)cc12 [PPTN-NC]
active: inhibition [15] 57.4% | inhibition [42] 91.8%
inactive: residual activity [1] 100% | residual activity [2] 100% | residual activity [3] 100% | residual activity [4] 92% | inhibition [5] 7.22% | residual activity [6] 100% | residual activity [7] 89% | residual activity [8] 100% | residual activity [9] 89% | residual activity [10] 70% | residual activity [11] 100% | residual activity [12] 100% | residual activity [13] 100% | residual activity [14] 100% | residual activity [16] 100% | residual activity [17] 100% | residual activity [18] 84% | residual activity [19] 100% | residual activity [20] 100% | residual activity [21] 100% | residual activity [22] 100% | residual activity [23] 89% | residual activity [24] 100% | inhibition [25] 27.8% | residual activity [26] 100% | residual activity [27] 100% | residual activity [28] 100% | inhibition [29] 11.2% | residual activity [30] 90% | residual activity [31] 90% | residual activity [32] 90% | residual activity [33] 100% | residual activity [34] 100% | residual activity [35] 100% | residual activity [36] 100% | residual activity [37] 100% | residual activity [38] 100% | residual activity [39] 100% | residual activity [40] 100% | residual activity [41] 100%

Source: ChEMBL document CHEMBL4507292 (2021)
